Broadly, the pEC50 is the negative decadic logarithm of the EC50, by convention in mol/L.

The experiment concerns the target human FXR (NR1H4) (Homo sapiens (Human), UniProt Q96RI1). As to the kind of experiment: Human FXR (NR1H4) Assay (Gal4 promoter driven luciferase reporter, Indigo Bioscience kit).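 On Efficacy (%): 100% equals the efficacy of CDCA; efficacy normalized to CDCA set as 100%.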 Type of experiment: cell-based. The settings on record: for pEC50: Human FXR (NR1H4) Assay, potency ranges; for Emax: read-out: Efficacy (%). The procedure, abridged: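 CHO reporter cells expressing human FXR with an FXR-responsive luciferase reporter, treated with compound doses at 0.2% DMSO. Incubation lasted 22 h at 37 °C before luciferase detection reagent was added. Luminescence was then read.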

pEC50: −log10 of the molar value.

human FXR (NR1H4), sequence (Q96RI1 whole entry, the tested form may be a part): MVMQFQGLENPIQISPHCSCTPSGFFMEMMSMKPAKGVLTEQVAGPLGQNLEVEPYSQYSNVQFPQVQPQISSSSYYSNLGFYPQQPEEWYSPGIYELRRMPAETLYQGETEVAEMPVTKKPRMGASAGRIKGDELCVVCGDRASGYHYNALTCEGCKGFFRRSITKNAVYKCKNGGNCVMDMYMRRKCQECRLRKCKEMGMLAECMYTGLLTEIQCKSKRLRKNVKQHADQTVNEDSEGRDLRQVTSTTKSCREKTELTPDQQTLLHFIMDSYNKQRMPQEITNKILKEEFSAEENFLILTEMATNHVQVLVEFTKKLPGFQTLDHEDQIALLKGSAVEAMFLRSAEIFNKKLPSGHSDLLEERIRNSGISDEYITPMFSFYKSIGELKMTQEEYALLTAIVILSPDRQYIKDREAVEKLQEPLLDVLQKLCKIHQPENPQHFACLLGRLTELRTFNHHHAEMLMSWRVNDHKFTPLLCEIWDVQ

Consider `CC[C@H]1[C@@H](O)[C@@H]2[C@H](CC[C@]3(C)[C@@H]([C@H](C)CCOC(=O)N[C@H]4CC[C@H](O)CC4)CC[C@@H]23)[C@@]2(C)CC[C@@H](O)C[C@@H]12` [Example 185], for which the pEC50 is 6.00 to 7.00 and the Emax was found to be 392%.
Consider `CC[C@H]1[C@@H](O)[C@@H]2[C@H](CC[C@]3(C)[C@@H]([C@H](C)CCOC(=O)N4CC(CO)C4)CC[C@@H]23)[C@@]2(C)CC[C@@H](O)C[C@@H]12` [Example 214], for which the pEC50 is more than 7.00 and the Emax amounted to 194%.
The matching figures for `CC[C@H]1[C@@H](O)[C@@H]2[C@H](CC[C@]3(C)[C@@H]([C@H](C)COC(=O)NS(=O)(=O)c4ccc(N5CCCCC5)cc4)CC[C@@H]23)[C@@]2(C)CC[C@@H](O)C[C@@H]12` [Example 9]: more than 7.00 and 208%.
For `CC[C@H]1[C@@H](O)[C@@H]2[C@H](CC[C@]3(C)[C@@H]([C@H](C)CCOC(=O)NCc4ccc(O)cc4)CC[C@@H]23)[C@@]2(C)CC[C@@H](O)C[C@@H]12` [Example 158], in that order: 6.00 to 7.00 and 240%.
As to `CC[C@H]1[C@@H](O)[C@@H]2[C@H](CC[C@]3(C)[C@@H]([C@H](C)CCOC(=O)N[C@H](C(=O)O)C(C)C)CC[C@@H]23)[C@@]2(C)CC[C@@H](O)C[C@@H]12` [Example 155], the pEC50 is 6.00 to 7.00 and the Emax came to 278%.
For `CC[C@H]1[C@@H](O)[C@@H]2[C@H](CC[C@]3(C)[C@@H]([C@H](C)COC(=O)NS(=O)(=O)c4ccc(-c5ccc(C(F)(F)F)cc5)s4)CC[C@@H]23)[C@@]2(C)CC[C@@H](O)C[C@@H]12` [Example 27], in that order: 6.00 to 7.00 and 173%.
The matching figures for `CC[C@H]1[C@@H](O)[C@@H]2[C@H](CC[C@]3(C)[C@@H]([C@H](C)CCOC(=O)NS(=O)(=O)CCc4cccc(Cl)c4)CC[C@@H]23)[C@@]2(C)CC[C@@H](O)C[C@@H]12` [Example 91]: 6.00 to 7.00 and 313%.
For `CC[C@H]1[C@@H](O)[C@@H]2[C@H](CC[C@]3(C)[C@@H]([C@H](C)CCCOC(=O)NS(=O)(=O)C4CCCC4)CC[C@@H]23)[C@@]2(C)CC[C@@H](O)C[C@@H]12` [Example 120], in that order: 6.00 to 7.00 and 485%.
On to `CC[C@H]1[C@@H](O)[C@@H]2[C@H](CC[C@]3(C)[C@@H]([C@H](C)CCOC(=O)NCCO)CC[C@@H]23)[C@@]2(C)CC[C@@H](O)C[C@@H]12` [Example 153], for which the pEC50 was 6.00 to 7.00 and the Emax was 230%.
For `CC[C@H]1[C@@H](O)[C@@H]2[C@H](CC[C@]3(C)[C@@H]([C@H](C)CCOC(=O)N4CCC[C@H]4CO)CC[C@@H]23)[C@@]2(C)CC[C@@H](O)C[C@@H]12` [Example 210], in that order: more than 7.00 and 156%.
For `CC[C@H]1[C@@H](O)[C@@H]2[C@H](CC[C@]3(C)[C@@H]([C@H](C)COC(=O)NS(=O)(=O)c4ccc(N5CCCCC5=O)cc4)CC[C@@H]23)[C@@]2(C)CC[C@@H](O)C[C@@H]12` [Example 18], in that order: more than 7.00 and 221%.
The matching figures for `CC[C@H]1[C@@H](O)[C@@H]2[C@H](CC[C@]3(C)[C@@H]([C@H](C)CCOC(=O)N4CCCCC4)CC[C@@H]23)[C@@]2(C)CC[C@@H](O)C[C@@H]12` [Example 146]: more than 7.00 and 223%.
`CC[C@H]1[C@@H](O)[C@@H]2[C@H](CC[C@]3(C)[C@@H]([C@H](C)CCOC(=O)NS(=O)(=O)c4ccc(F)c(F)c4)CC[C@@H]23)[C@@]2(C)CC[C@@H](O)C[C@@H]12` [Example 102]: the negative logarithm of the EC50 (pEC50) was more than 7.00 and the Emax came to 235%.

The values are drawn from patent publication US10457703B2, “Bile acid derivatives as FXR/TGR5 agonists and methods of use thereof” (ENANTA PHARMACEUTICALS, INC., priority 2015, dated 2019).
